Assay results as given in patent publication US11186583B2, “5-alkylthio-7-[(4-arylbenzyl)amino]-1(2)H-pyrazolo[4,3-d]pyrimidines for treatment of lymphoma” (UNIVERZITA PALACKEHO V OLOMOUCI, priority 2018, dated 2021).
Like-named read-outs stand apart in the source and are kept apart here. Values belong to the compound of their own block, whether it stands above or below them.

Legend:
[1] = system: HT (diffuse large B-cell lymphoma, subtype—germinal center B-cell); assay: MTT cytotoxicity assay, HT lymphoma cell line; type: cell-based; details: Homo sapiens, 72 h, HT cells, three days, read-out: Lymphoma cell lines GI50, HT
Text: (§1) Cytotoxicity of the compounds is the major property determining their anti-lymphoma efficacy in vitro. One of the parameters used, as the basis for cytotoxicity assays, is the metabolic activity of viable cells. For example 2, a microtiter assay, which uses (3-(4,5-dimethylthiazol-2-yl)-2,5-diphenyltetrazolium bromide (MTT), is widely used to quantitate cell proliferation and cytotoxicity. This assay is widely used in drug screening programs and in chemosensitivity testing. Because only metabolically active living cells reduce MTT to correspond purple formazan dye, these assays detect viable cells exclusively. The quantity of reduced MTT corresponds to the number of vital cells in the culture.
(§2) The compounds were assayed using the following lymphoma cell lines: HT (diffuse large B-cell lymphoma, subtype—germinal center B-cell), OCI-LY2 (diffuse large B-cell lymphoma, subtype—germinal center B-cell), MINO (mantle cell lymphoma). All cell lines were grown in RPMI medium supplemented with fetal bovine serum and glutamine and maintained at 37° C. in a humidified atmosphere with 5% CO2. For cytotoxicity assays, 5000-10000 cells were seeded into each well of 96 well plate, allowed to stabilize for at least 8 h and then tested compounds were added at various concentrations ranging from 100 to 0.01 μM in triplicates. After three days, MTT solution (5 mg/ml; Sigma, St. Louis, USA) was added to cells and medium was replaced with DMSO after five hours. The absorbance was measured at 620 nm by employing a microplate reader. MTT assays were repeated 3 times for each drug application and untreated cells were used as reference. The GI50 values, drug concentrations lethal to 50% of the cells, were calculated from the obtained dose response curves.

[2] = system: OCI-LY2 (diffuse large B-cell lymphoma, subtype—germinal center B-cell); assay: MTT cytotoxicity assay, OCI-LY2 lymphoma cell line; type: cell-based; details: 72 h, OCI-LY2 cells, three days, read-out: Lymphoma cell lines GI50, OCI-LY2
Text: as §1, §2

[3] = system: MINO (mantle cell lymphoma); assay: MTT cytotoxicity assay, MINO lymphoma cell line; type: cell-based; details: Homo sapiens, 72 h, MINO cells, three days, read-out: Lymphoma cell lines GI50, MINO
Text: as §1, §2

CDK2/Cyclin E = target: T1, CDK2/Cyclin E (Homo sapiens, UniProt P24941); assay: CDK2/Cyclin E kinase inhibition, [γ-33P]ATP, histone H1; type: biochemical
T1 construct: made in house; host or cells: Sf9 insect cells (baculovirus)
Description: CDK2/Cyclin E and CDK1/Cyclin B kinases were produced in Sf9 insect cells via baculoviral infection and purified on a Ni-NTA column (Qiagen). CDK4/Cyclin D1, CDK5/p35NCK, CDK7/Cyclin H/MAT1 and CDK9/Cyclin T1 were purchased from ProQinase GmbH. […] The reactions were stopped by adding 5 mL of 3% aq. H3PO4. Aliquots were spotted onto P-81 phosphocellulose (Whatman), washed 3 times with 0.5% aq. H3PO4 and finally air-dried. Kinase inhibition was quantified using a FLA-7000 digital image analyzer (Fujifilm). The concentration of the test compounds required to decrease the CDK activity by 50% was determined from dose response curves and designated as IC50.

CDK4/Cyclin D1 = target: T2, CDK4/Cyclin D1 (Homo sapiens, UniProt P11802); assay: CDK4/Cyclin D1 kinase inhibition, [γ-33P]ATP, […] peptide; type: biochemical; details: CDK panel, tested at least in duplicates
T2 construct: purchased ProQinase GmbH
T2 sequence (P11802 whole entry): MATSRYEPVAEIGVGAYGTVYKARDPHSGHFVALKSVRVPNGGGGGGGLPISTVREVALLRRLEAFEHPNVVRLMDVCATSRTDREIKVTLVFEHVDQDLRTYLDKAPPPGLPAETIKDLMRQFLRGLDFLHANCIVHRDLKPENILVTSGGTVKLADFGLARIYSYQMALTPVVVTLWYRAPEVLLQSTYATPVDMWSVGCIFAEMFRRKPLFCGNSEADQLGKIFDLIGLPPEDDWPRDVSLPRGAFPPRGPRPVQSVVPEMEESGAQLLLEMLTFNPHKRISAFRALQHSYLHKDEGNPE
T2 sequence (P24385 whole entry partner): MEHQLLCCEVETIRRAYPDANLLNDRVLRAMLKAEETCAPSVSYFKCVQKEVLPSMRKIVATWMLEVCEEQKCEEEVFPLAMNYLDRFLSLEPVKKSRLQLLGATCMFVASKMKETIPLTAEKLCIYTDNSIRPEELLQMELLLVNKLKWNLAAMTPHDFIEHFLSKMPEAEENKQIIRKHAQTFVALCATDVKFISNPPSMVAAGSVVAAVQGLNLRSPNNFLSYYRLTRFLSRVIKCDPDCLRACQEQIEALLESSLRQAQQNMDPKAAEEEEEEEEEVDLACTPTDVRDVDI
Description: (§3) CDK2/Cyclin E and CDK1/Cyclin B kinases were produced in Sf9 insect cells via baculoviral infection and purified on a Ni-NTA column (Qiagen). CDK4/Cyclin D1, CDK5/p35NCK, CDK7/Cyclin H/MAT1 and CDK9/Cyclin T1 were purchased from ProQinase GmbH. The kinases were assayed with 1 mg/mL histone H1 (for CDK1/2/5) or (YSPTSPS)2 KK peptide (for CDK7/CDK9) or […] peptide (for CDK4) in the presence of […] (for CDK1/2/4/5/7/9), 0.05 mCi [γ-33P]ATP and of the test compound in a final volume of […], all in a reaction buffer (60 mM HEPES, NaOH, pH 7.5, 3 mM MgCl2, 3 mM MnCl2, 3 mM Na-orthovanadate, 1.2 mM DTT, 2.5 mg/50 ml PEG20.000). The reactions were stopped by adding […] of 3% aq. H3PO4. Aliquots were spotted onto P-81 phosphocellulose (Whatman), washed 3 times with 0.5% aq. H3PO4 and finally air-dried. Kinase inhibition was quantified using a FLA-7000 digital image analyzer (Fujifilm). The concentration of the test compounds required to decrease the CDK activity by 50% was determined from dose response curves and designated as IC50.

CDK9/Cyclin T1 = target: T3, CDK9/Cyclin T1 (Homo sapiens, UniProt P50750); assay: CDK9/Cyclin T1 kinase inhibition, [γ-33P]ATP, (YSPTSPS)2 KK peptide; type: biochemical; details: CDK panel, tested at least in duplicates
T3 construct: purchased ProQinase GmbH
T3 sequence (P50750 whole entry): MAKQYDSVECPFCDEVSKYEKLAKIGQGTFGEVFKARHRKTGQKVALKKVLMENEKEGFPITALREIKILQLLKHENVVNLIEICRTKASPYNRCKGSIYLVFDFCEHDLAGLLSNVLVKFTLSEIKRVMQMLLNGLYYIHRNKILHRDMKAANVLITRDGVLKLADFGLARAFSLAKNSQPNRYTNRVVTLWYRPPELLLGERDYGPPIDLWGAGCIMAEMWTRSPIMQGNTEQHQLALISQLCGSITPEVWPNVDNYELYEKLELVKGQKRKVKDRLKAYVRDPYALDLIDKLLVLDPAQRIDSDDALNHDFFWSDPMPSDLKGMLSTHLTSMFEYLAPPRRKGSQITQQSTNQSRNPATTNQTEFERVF
T3 sequence (O60563 whole entry partner): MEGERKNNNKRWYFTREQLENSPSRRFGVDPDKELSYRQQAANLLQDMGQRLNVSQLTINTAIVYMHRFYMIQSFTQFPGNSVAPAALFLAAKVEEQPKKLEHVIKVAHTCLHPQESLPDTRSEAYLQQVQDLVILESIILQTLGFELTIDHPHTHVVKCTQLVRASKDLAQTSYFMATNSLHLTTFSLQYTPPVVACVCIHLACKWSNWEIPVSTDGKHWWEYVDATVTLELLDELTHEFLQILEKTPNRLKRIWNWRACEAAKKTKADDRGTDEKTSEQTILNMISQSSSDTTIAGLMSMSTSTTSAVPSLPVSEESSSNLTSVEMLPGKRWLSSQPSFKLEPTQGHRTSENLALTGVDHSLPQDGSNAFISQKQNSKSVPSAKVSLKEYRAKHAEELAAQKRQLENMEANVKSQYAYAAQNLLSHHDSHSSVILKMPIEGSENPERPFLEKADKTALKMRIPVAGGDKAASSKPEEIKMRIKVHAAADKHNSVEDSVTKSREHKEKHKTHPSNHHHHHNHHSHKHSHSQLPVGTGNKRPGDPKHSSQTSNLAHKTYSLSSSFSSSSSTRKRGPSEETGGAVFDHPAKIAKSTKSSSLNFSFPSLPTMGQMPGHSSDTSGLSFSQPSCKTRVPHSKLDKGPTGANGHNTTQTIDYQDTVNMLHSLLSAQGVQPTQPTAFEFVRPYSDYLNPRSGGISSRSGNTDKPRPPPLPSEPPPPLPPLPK
Description: as §3

[4] = Table 3, read-out: Enzyme inhibition IC50 CDK2/E
[5] = Table 4, read-out: CDK2/E inhibition IC50

SMILES: CC[C@@H](CO)Nc1nc(NCc2ccc(-c3ccccn3)cc2)c2ncn(C(C)C)c2n1 [CR8, (2S)-2-[[9-propan-2-yl-6-[(4-pyridine-2-ylphenyl)methylamino]purin-2-yl]amino]butan-1-ol]
- IC50 (CDK4/Cyclin D1): 26.1 µM
- IC50 (CDK9/Cyclin T1): 0.272 ± 0.038 µM

SMILES: CC(C)c1n[nH]c2c(NCc3ccc(-c4cnccn4)cc3)nc(SCCN)nc12 [Compound 4.139, 5-(2-Amino-1-ethyl)thio-3-isopropyl-7-[4-(pyrazin-2-yl)benzyl]amino-1(2)H-pyrazolo[4,3-d]pyrimidin]
- IC50 (CDK2/Cyclin E; [5]): 0.004 µM

SMILES: CC(O)CSc1nc(NCc2ccc(-n3cccn3)cc2)c2n[nH]c(C(C)C)c2n1 (stereo not shown) [Compound 4.81, 5-(2-Hydroxy-1-propyl)thio-3-isopropyl-7-[4-(pyrazol-1-yl)benzyl]amino-1(2)H-pyrazolo[4,3-d]pyrimidin]
- IC50 (CDK2/Cyclin E; [5]): 0.037 µM

SMILES: CC(C)c1[nH]nc2c(NCc3ccc(-n4cccn4)cc3)nc(SCC(C)(C)O)nc12 [Compound 4.93, 5-(2-Hydroxy-2-methyl-1-propyl)thio-3-isopropyl-7-[4-(pyrazol-1-yl)benzyl]amino-1(2)H-pyrazolo[4,3-d]pyrimidin]
- IC50 (CDK2/Cyclin E; [5]): 0.008 µM

SMILES: CC(C)c1n[nH]c2c(NCc3ccc(-n4ccnc4)cc3)nc(SCCN)nc12 [Compound 4.57, 5-(2-Amino-1-ethyl)thio-3-isopropyl-7-[4-(imidazol-1-yl)benzyl]amino-1(2)H-pyrazolo[4,3-d]pyrimidin]
- IC50 (CDK2/Cyclin E; [5]): 0.005 µM

Further lines, with some results ahead:

- IC50 (CDK2/Cyclin E; [4]): 0.363 µM
SMILES: CC(C)c1n[nH]c2c(NCc3ccc(-c4ccccn4)cc3)nc(SC3OC(CO)C(O)C(O)C3O)nc12 [Compound 4.22, 5-β-D-Thioglucosid-3-isopropyl-7-[4-(2-pyridyl)benzyl]amino-1(2)H-pyrazolo[4,3-d]pyrimidine]
- GI50 [1]: 8.07 µM
- GI50 [2]: 25.2 µM
- GI50 [3]: 21.6 µM

- IC50 (CDK2/Cyclin E; CDK panel, tested at least in duplicates, read-out: IC50 CDK2): 0.005 ± 0.001 µM
- IC50 (CDK2/Cyclin E; [4]): 0.004 µM
SMILES: CC(C)c1n[nH]c2c(NCc3ccc(-c4ccccn4)cc3)nc(SCCN)nc12 [Compound 4.9, 5-(2-Amino-1-ethyl)thio-3-isopropyl-7-[4-(2-pyridyl)benzyl]amino-1(2)H-pyrazolo[4,3-d]pyrimidine]
- GI50 [1]: 0.04 µM
- GI50 [2]: 0.046 µM
- GI50 [3]: 0.029 µM

- IC50 (CDK2/Cyclin E; [4]): 0.32 µM
SMILES: CC(C)c1n[nH]c2c(NCc3ccc(-c4ccccn4)cc3)nc(SCCS)nc12 [Compound 4.35, 5-(2-sulfanylethyl)thio-3-isopropyl-7-[4-(2-pyridyl)benzyl]amino-1(2)H-pyrazolo[4,3-d]pyrimidine]

- IC50 (CDK2/Cyclin E; [5]): 0.005 µM
SMILES: CC(C)c1n[nH]c2c(NCc3ccc(-c4c[nH]cn4)cc3)nc(SCCO)nc12 [Compound 4.109, 5-(2-Hydroxy-1-ethyl)thio-3-isopropyl-7-[4-(imidazol-4-yl)benzyl]amino-1(2)H-pyrazolo[4,3-d]pyrimidin]

- IC50 (CDK2/Cyclin E; [5]): 0.06 µM
SMILES: CC(C)c1[nH]nc2c(NCc3ccc(-n4cccn4)cc3)nc(SCCCN(C)C)nc12 [Compound 4.96]

- IC50 (CDK2/Cyclin E; [5]): 0.006 µM
SMILES: CC(C)c1[nH]nc2c(NCc3ccc(-n4cccn4)cc3)nc(SCC(O)CO)nc12 (stereo not shown) [Compound 4.94, 5-(2,3-Dihydroxy-1-propyl)thio-3-isopropyl-7-[4-(pyrazol-1-yl)benzyl]amino-1(2)H-pyrazolo[4,3-d]pyrimidin]
